From patent US20220370416A1, “COMPOUNDS AND METHODS FOR TARGETED DEGRADATION OF KRAS” (Arvinas Operations, Inc., priority 2020, published 2022) come the findings set out here.

The structures appear in SMILES notation. Bounds are passed on as bounds.

In experiment [1] the target is T1, HiBit-KRAS^G12C (Homo sapiens, UniProt P01116, G12C). Put plainly: HiBit degradation assay in MiaPaCa-2 HiBit-KRas^G12C cells. The following applies: 24 hours; for Dmax: MIA PaCa-2, MiaPaCa-2 HiBit-KRas^G12C cells. Format: cell-based. The method in brief: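 MiaPaCa-2 cells with CRISPR N-terminal HiBit knock-in on one endogenous KRAS^G12C allele, treated 24 hours at 37° C with compound titrated 10 μM to 20 nM (0.1% or 0.5% DMSO). Lytic HiBit luminescence normalized to DMSO, 4-parameter fit giving DC50 and Dmax; points cytotoxic to […] cells by alamar blue excluded.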
T1 sequence (P01116 1-186 isoform P01116-2 G12C limits assumed): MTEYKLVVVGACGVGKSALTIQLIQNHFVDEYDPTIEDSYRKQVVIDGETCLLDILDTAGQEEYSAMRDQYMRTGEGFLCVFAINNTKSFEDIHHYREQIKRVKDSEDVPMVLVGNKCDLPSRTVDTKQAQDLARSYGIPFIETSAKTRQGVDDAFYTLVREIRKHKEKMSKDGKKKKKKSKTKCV

In experiment [2] the target is T1, HiBit-KRAS^G12C. The experiment can be described thus: HiBit degradation assay in SW1573 HiBit-KRas^G12C cells. Type of experiment: cell-based. On the set-up: expressed in transfected cells; host or cells: SW1573 (clone E6), modified pcDNA3.1 vector, TK promoter. The settings on record: 24 hours. Summed up: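 SW1573 cells stably expressing N-terminally HiBit-tagged KRAS G12C, under the TK promoter, were treated 24 h at 37 °C with 10 μM to 20 nM compound in 0.1% or 0.5% DMSO. Residual HiBit luminescence normalised to DMSO and fitted with a 4-parameter model for DC50 and Dmax. Points with ≥50% viability loss (alamar blue) excluded.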
A general note: HiBiT is a short tag that completes a luciferase, so light tracks the accessible tagged protein.

[3] abbreviates: read-out: KRas^G12C-HiBiT (MiaPaCa; 0.5% DMSO) IC50, MiaPaCa-2 HiBit-KRas^G12C cells, 0.5% DMSO.
The mark [4] stands for this setting: SW1573, SW1573 HiBit-KRas^G12C, 0.5% DMSO, read-out: KRas^G12C-HiBiT (SW1573; 0.5% DMSO) Dmax**.
The mark [5] stands for this setting: read-out: KRas^G12C-HiBiT (SW1573; 0.5% DMSO) IC50***, SW1573 HiBit-KRas^G12C, 0.5% DMSO.
[6] abbreviates: 0.5% DMSO, maximum degradation, read-out: KRas^G12C-HiBiT (MiaPaCa; 0.5% DMSO) DMax.
[7] abbreviates: SW1573 HiBit-KRas^G12C, 0.1% DMSO, read-out: KRas^G12C-HIBit (SW1573; 0.1% DMSO) DC50*.

In the case of `C=CC(=O)N1CCN(c2nc(OCCN3CCC(CN(C)c4cc([C@@H](C(=O)N5C[C@H](O)C[C@H]5C(=O)N[C@@H](C)c5ccc(-c6scnc6C)cc5)C(C)C)on4)CC3)nc3c(F)c(-c4cc(O)cc5ccccc45)c(Cl)cc23)C[C@@H]1CC#N` [Compound 144, (2S,4R)-1-[(2S)-2-{3-[({1-[2-({6-chloro-4-[(3S)-3-(cyanomethyl)-4-(prop-2-enoyl)piperazin-1-yl]-8-fluoro-7-(3-hydroxynaphthalen-1-yl)quinazolin-2-yl}oxy)ethyl]piperidin-4-yl}methyl)(methyl)amino]-1,2-oxazol-5-yl}-3-methylbutanoyl]-4-hydroxy-N-[(1S)-1-[4-(4-methyl-1,3-thiazol-5-yl)phenyl]ethyl]pyrrolidine-2-carboxamide], the DC50 in experiment [1] (setting [3]) was above 1000 nM; in experiment [2] (setting [5]) it was 100 to 1000 nM. Besides, the Dmax in experiment [2] (setting [4]) was below 35%.

On to `C=CC(=O)N1CCN(c2nc(O[C@H](C)CN3CCC(COCC(=O)N[C@H](C(=O)N4C[C@H](O)C[C@H]4C(=O)N[C@@H](C)c4ccc(-c5scnc5C)cc4)C(C)(C)C)CC3)nc3c2CCN(c2cc(O)cc4ccccc24)C3)C[C@@H]1CC#N` [Compound 29, (2S,4R)-1-[(2S)-2-[2-({1-[(2R)-2-({4-[(3S)-3-(cyanomethyl)-4-(prop-2-enoyl)piperazin-1-yl]-7-(3-hydroxynaphthalen-1-yl)-5H,6H,7H,8H-pyrido[3,4-d]pyrimidin-2-yl}oxy)propyl]piperidin-4-yl}methoxy)acetamido]-3,3-dimethylbutanoyl]-4-hydroxy-N-[(1S)-1-[4-(4-methyl-1,3-thiazol-5-yl)phenyl]ethyl]pyrrolidine-2-carboxamide], for which the Dmax in experiment [1] (0.1% DMSO, maximum degradation, read-out: KRas^G12C-HiBiT (MiaPaCa; 0.1% DMSO) DMax) was 35 to 70%; in experiment [1] (setting [6]) it was 35 to 70%; in experiment [2] (SW1573, SW1573 HiBit-KRas^G12C, 0.1% DMSO, read-out: KRas^G12C-HiBit (SW1573; 0.1% DMSO) Dmax**), 35 to 70%; in experiment [2] (setting [4]) it was 35 to 70%. In addition, the DC50 in experiment [2] (setting [7]) is above 1000 nM.

For `C=CC(=O)N1CCN(c2nc(OCCN3CCC(COc4cc([C@H](C(=O)N5C[C@H](O)C[C@H]5C(=O)N[C@@H](C)c5ccc(-c6scnc6C)cc5)C(C)C)on4)CC3)nc3c(F)c(-c4cc(O)cc5ccccc45)c(Cl)cc23)C[C@@H]1CC#N` [Compound 169, (2S,4R)-1-[(2R)-2-[3-({1-[2-({6-chloro-4-[(3S)-3-(cyanomethyl)-4-(prop-2-enoyl)piperazin-1-yl]-8-fluoro-7-(3-hydroxynaphthalen-1-yl)quinazolin-2-yl}oxy)ethyl]piperidin-4-yl}methoxy)-1,2-oxazol-5-yl]-3-methylbutanoyl]-4-hydroxy-N-[(1S)-1-[4-(4-methyl-1,3-thiazol-5-yl)phenyl]ethyl]pyrrolidine-2-carboxamide], in experiment [1] (MiaPaCa-2 HiBit-KRas^G12C cells, 0.5% DMSO, maximum degradation), the “KRas^G12C-HiBiT (MiaPaCa; 0.5% DMSO) DMax” value was “A (A ≥ 70)”. The DC50 was 100 to 1000 nM in experiment [1] (setting [3]) and below 100 nM in experiment [2] (setting [5]). Further, the “KRas^G12C-HiBiT (SW1573; 0.5% DMSO) Dmax**” value in experiment [2] (SW1573 HiBit-KRas^G12C, 0.5% DMSO) is “A (A ≥ 70)”.

In the case of `C=CC(=O)N1CCN(c2nc(OCCN3CCC(COc4cc([C@H](C(=O)N5C[C@H](O)C[C@H]5C(=O)N[C@@H](C)c5ccc(-c6ccnn6C)cc5)C(C)C)on4)CC3)nc3c(F)c(-c4cc(O)cc5ccccc45)c(Cl)cc23)C[C@@H]1CC#N` [Compound 157, (2S,4R)-1-[(2R)-2-[3-({1-[2-({6-chloro-4-[(3S)-3-(cyanomethyl)-4-(prop-2-enoyl)piperazin-1-yl]-8-fluoro-7-(3-hydroxynaphthalen-1-yl)quinazolin-2-yl}oxy)ethyl]piperidin-4-yl}methoxy)-1,2-oxazol-5-yl]-3-methylbutanoyl]-4-hydroxy-N-[(1S)-1-[4-(1-methyl-1H-pyrazol-5-yl)phenyl]ethyl]pyrrolidine-2-carboxamide], the DC50 is 100 to 1000 nM in experiment [1] (setting [3]) and below 100 nM in experiment [2] (setting [5]).

With `C=C(F)C(=O)N1CCN(c2nc(OCCN3CCC(COc4cc([C@@H](C(=O)N5C[C@H](O)C[C@H]5C(=O)N[C@@H](C)c5ccc(-c6scnc6C)cc5)C(C)C)on4)CC3)nc3c(F)c(-c4cc(O)cc5ccccc45)c(Cl)cc23)C[C@@H]1CC#N` [Compound 171, (2S,4R)-1-[(2S)-2-[3-({1-[2-({6-chloro-4-[(3S)-3-(cyanomethyl)-4-(2-fluoroprop-2-enoyl)piperazin-l-yl]-8-fluoro-7-(3-hydroxynaphthalen-1-yl)quinazolin-2-yl}oxy)ethyl]piperidin-4-yl}methoxy)-1,2-oxazol-5-yl]-3-methylbutanoyl]-4-hydroxy-N-[(1S)-1-[4-(4-methyl-1,3-thiazol-5-yl)phenyl]ethyl]pyrrolidine-2-carboxamide], the DC50 in experiment [1] (setting [3]) and in experiment [2] (setting [5]) was above 1000 nM in each case.

As to `Cc1ncsc1-c1ccc([C@H](C)NC(=O)[C@@H]2C[C@@H](O)CN2C(=O)[C@@H](NC(=O)COCC2CCN(CCOc3nc(N4CCN(C(=O)/C=C/CN(C)C)[C@@H](CC#N)C4)c4cc(Cl)c(-c5cc(O)cc6ccccc56)c(F)c4n3)CC2)C(C)(C)C)cc1` [Compound 165, (2S,4R)-1-[(2S)-2-[2-({1-[2-({6-chloro-4-[(3S)-3-(cyanomethyl)-4-[(2E)-4-(dimethylamino)but-2-enoyl]piperazin-1-yl]-8-fluoro-7-(3-hydroxynaphthalen-1-yl)quinazolin-2-yl}oxy)ethyl]piperidin-4-yl}methoxy)acetamido]-3,3-dimethylbutanoyl]-4-hydroxy-N-[(1S)-1-[4-(4-methyl-1,3-thiazol-5-yl)phenyl]ethyl]pyrrolidine-2-carboxamide], the Dmax in experiment [1] (setting [6]) and in experiment [2] (setting [4]) was 35 to 70% each time. Moreover, the DC50 in experiment [1] (setting [3]) is above 1000 nM; in experiment [2] (setting [5]), 100 to 1000 nM.

In the case of `C=CC(=O)N1CCN(c2nc(OCCN3CCC(F)(COCC(=O)N[C@H](C(=O)N4C[C@H](O)C[C@H]4C(=O)N[C@@H](C)c4ccc(-c5scnc5C)cc4)C(C)(C)C)CC3)nc3c(F)c(-c4cc(O)cc5ccccc45)c(Cl)cc23)C[C@@H]1CC#N` [Compound 150, (2S,4R)-1-[(2S)-2-[2-({1-[2-({6-chloro-4-[(3S)-3-(cyanomethyl)-4-(prop-2-enoyl)piperazin-1-yl]-8-fluoro-7-(3-hydroxynaphthalen-1-yl)quinazolin-2-yl}oxy)ethyl]-4-fluoropiperidin-4-yl}methoxy)acctamido]-3,3-dimethylbutanoyl]-4-hydroxy-N-[(1S)-1-[4-(4-methyl-1,3-thiazol-5-yl)phenyl]ethyl]pyrrolidine-2-carboxamide], the Dmax in experiment [1] (setting [6]) and in experiment [2] (setting [4]) was above 70% throughout. The DC50 in experiment [1] (setting [3]) was above 1000 nM; in experiment [2] (setting [5]), 100 to 1000 nM.

For the compound `C=CC(=O)N1CCN(c2nc(O[C@H](C)CN3CCN(CC4CN(CC(=O)N[C@H](C(=O)N5C[C@H](O)C[C@H]5C(=O)N[C@@H](C)c5ccc(-c6scnc6C)cc5)C(C)(C)C)C4)CC3)nc3c(F)c(-c4cc(O)cc5ccccc45)c(Cl)cc23)CC1` [Compound 28, (2S,4R)-1-[(2S)-2-{2-[3-({4-[(2R)-2-{[6-chloro-8-fluoro-7-(3-hydroxynaphthalen-1-yl)-4-[4-(prop-2-enoyl)piperazin-1-yl]quinazolin-2-yl]oxy}propyl]piperazin-1-yl}methyl)azetidin-1-yl]acetamido}-3,3-dimethylbutanoyl]-4-hydroxy-N-[(1S)-1-[4-(4-methyl-1,3-thiazol-5-yl)phenyl]ethyl]pyrrolidine-2-carboxamide], the DC50 in experiment [1] (read-out: KRas^G12C-HiBiT (MiaPaCa; 0.1% DMSO) IC50, MiaPaCa-2 HiBit-KRas^G12C cells, 0.1% DMSO) was above 1000 nM; in experiment [2] (setting [7]), 100 to 1000 nM. Moreover, the Dmax in experiment [2] (SW1573, read-out: KRas^G12C-HiBit (SW1573; 0.1% DMSO) Dmax**, SW1573 HiBit-KRas^G12C, 0.1% DMSO) is below 35%.

With `C=C(F)C(=O)N1CCN(c2nc(OCCN3CCC(OCCOCC(=O)N[C@H](C(=O)N4C[C@H](O)C[C@H]4C(=O)N[C@@H](C)c4ccc(-c5scnc5C)cc4)C(C)(C)C)CC3)nc3c(F)c(-c4cc(O)cc5ccccc45)c(Cl)cc23)C[C@@H]1CC#N` [Compound 170, (2S,4R)-1-[(2S)-2-{2-[2-({1-[2-({6-chloro-4-[(3S)-3-(cyanomethyl)-4-(2-fluoroprop-2-enoyl)piperazin-1-yl]-8-fluoro-7-(3-hydroxynaphthalen-1-yl)quinazolin-2-yl}oxy)ethyl]piperidin-4-yl}oxy)ethoxy]acetamido}-3,3-dimethylbutanoyl]-4-hydroxy-N-[(1S)-1-[4-(4-methyl-1,3-thiazol-5-yl)phenyl]ethyl]pyrrolidine-2-carboxamide], the figures for the Dmax in experiment [1] (setting [6]) and in experiment [2] (setting [4]) were 35 to 70% and above 70%, respectively. The DC50 in experiment [1] (setting [3]) and in experiment [2] (setting [5]) was 100 to 1000 nM in each case.
